What was measured:
[1] = tested on: rat cardiac allograft; test: rat cardiac allograft transplant model (ACI to Lewis); type: in vivo; details: for mean survival time of the graft (MST): vehicle MST = 6 days
Procedure: Cardiac graft of ACI (RT1a) rats was heterotopically transplanted into the abdominal cavity of Lewis (RT1^l) recipients employing a microvascular surgical technique as described. The grafts were monitored daily by abdominal palpation, and the complete cessation of heart contraction was defined as graft rejection. SCH 546738 or 0.4% methylcellulose (vehicle) was orally administered at the indicated dose (0.2 ml) twice a day, starting on the day before transplantation until the day of graft rejection. To test whether SCH 546738 enhanced the effect of conventional immunosuppressive reagent, the recipients were received treatment with subtherapeutic dose of CsA for one week combined with treatment with SCH 546738. Graft survival was analyzed using the log-rank test. The parametric data were analyzed by Student t test (2-tailed) using GraphPad InStat version 5.0.1 for Windows 98, GraphPad Software, San Diego California USA (http://www.graphpad.com). p < 0.05 was considered statistically significant.
SCH 546738 was administered orally twice daily at 1, 5 and 15 mpk. […] Graft survival was analyzed using the log-rank test.

[2] = plasma pharmacokinetics after oral dosing in C57BL/6 mouse; type: in vivo; details: 30 mg/kg, 30 mpk oral in 0.4% methylcellulose, n = 3, read-out: AUC (0-24 hr)
Procedure: (§1) SCH 546738 was tested at concentrations of 1-10 μM against a panel of 49 GPCR binding assays. Most of the assays were not affected by SCH 546738 (Table 2). […] In addition, SCH 546738 has a favourable pharmacokinetic profile in rodents. […] Therefore, SCH 546738 is suitable for in vivo preclinical studies.
Figure 4 Plasma concentration versus time profiles of SCH 546738 in Lewis rat and C57BL/6 mouse. SCH 546738 in 0.4% methylcellulose was administered orally at 10 mg/kg (mpk) in Lewis rats or 30 mpk in C57BL/6 mice. The plasma concentration of SCH 546738 in the blood was calculated as the mean of 3 animals (n = 3) at indicated time points post-dose. Their AUC from 0 to 24 hr is also calculated and indicated.

[3] = target: T1, rat CXCR3 (Rattus norvegicus, UniProt Q9JII9); test: [125I]hCXCL10 competition binding (SPA, Ba/F3 membranes); details: read-out: IC50 (nM) (CXCL10)
T1 construct: expressed in transfected cells; host or cells: mouse pro-B Ba/F3 cells (vector pME18Sneo), membrane preparation
Procedure: (§2) The cDNAs encoding human, mouse and rat CXCR3 were generated based on the published sequences: human (NM_001504), mouse (NM_009910), rat (NM_053415). The cDNAs for monkey and dog CXCR3 were cloned in the lab. All CXCR3 cDNAs were cloned into the mammalian expression vector pME18Sneo, a derivative of the SRα expression vector as described previously. IL-3-dependent mouse pro-B cells Ba/F3 were transfected to express CXCR3 of different species and cell membranes were prepared as described previously.
(§3) A scintillation proximity assay was used for radioligand competition binding assays as described previously with some modifications. For each assay point, 1 µg of membrane was preincubated for 1 hr with 300 µg wheat germ agglutinin (WGA) coated SPA beads (GE Healthcare Life Sciences) in the binding buffer (50 mM HEPES, 1 mM CaCl2, 5 mM MgCl2, 125 mM NaCl, 0.002% NaN3, 1.0% BSA) at room temperature. The beads were spun down, resuspended in the binding buffer and transferred to a 96-well Isoplate (Wallac, Gaithersburg, MD). The indicated concentrations of ^125I-hCXCL10, ^125I-hCXCL11 or ^35S-SCH 535390 with a series of titrations of SCH 546738 were added to start the reaction. After indicated reaction times at room temperature, the amount of radioactivity bound to the SPA beads was determined with a Wallac 1450 Microbeta counter (Wallac).
(§4) It is important to investigate species specificity of SCH 546738 to design in vivo preclinical studies.

[4] = target: T2, mouse CXCR3 (Mus musculus, UniProt O88410); test: as above; details: read-out: IC50 (nM) (CXCL10)
T2 construct: expressed in transfected cells; host or cells: mouse pro-B Ba/F3 cells (vector pME18Sneo), membrane preparation
T2 sequence (O88410 whole entry): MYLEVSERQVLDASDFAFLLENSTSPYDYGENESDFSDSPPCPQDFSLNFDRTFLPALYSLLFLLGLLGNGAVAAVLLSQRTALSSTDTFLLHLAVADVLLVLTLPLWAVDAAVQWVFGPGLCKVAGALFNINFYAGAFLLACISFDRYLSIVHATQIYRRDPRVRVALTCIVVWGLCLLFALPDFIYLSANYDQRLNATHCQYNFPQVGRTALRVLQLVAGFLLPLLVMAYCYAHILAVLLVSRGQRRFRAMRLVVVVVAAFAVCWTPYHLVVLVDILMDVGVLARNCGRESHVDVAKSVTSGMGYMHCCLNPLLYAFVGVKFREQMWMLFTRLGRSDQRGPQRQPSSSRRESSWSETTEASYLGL
Procedure: as §2, §3, §4

[5] = target: T3, dog CXCR3 (Canis lupus familiaris, UniProt Q5KSK8); test: as above; details: read-out: IC50 (nM) (CXCL10)
T3 construct: expressed in transfected cells; host or cells: mouse pro-B Ba/F3 cells (vector pME18Sneo), membrane preparation
Procedure: as §2, §3, §4

[6] = target: CCR1 (Homo sapiens, UniProt P32246); test: GPCR counterscreen binding assay
Procedure: as §1

[7] = target: CCR2 (Homo sapiens, UniProt P41597); test: GPCR counterscreen binding assay
Sequence of CCR2 (P41597 whole entry): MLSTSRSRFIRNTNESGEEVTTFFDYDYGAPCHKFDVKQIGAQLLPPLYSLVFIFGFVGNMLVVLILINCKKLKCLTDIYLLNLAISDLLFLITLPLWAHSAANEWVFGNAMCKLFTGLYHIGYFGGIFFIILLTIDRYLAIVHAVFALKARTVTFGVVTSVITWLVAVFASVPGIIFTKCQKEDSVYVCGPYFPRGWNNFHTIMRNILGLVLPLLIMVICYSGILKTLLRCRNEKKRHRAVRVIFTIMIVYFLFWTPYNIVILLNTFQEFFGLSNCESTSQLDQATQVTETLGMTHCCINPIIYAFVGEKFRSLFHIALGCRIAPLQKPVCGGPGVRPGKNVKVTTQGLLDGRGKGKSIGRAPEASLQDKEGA
Procedure: as §1

[8] = target: Neurokinin NK3 (Homo sapiens, UniProt P29371); test: GPCR counterscreen binding assay
Sequence of Neurokinin NK3 (P29371 whole entry): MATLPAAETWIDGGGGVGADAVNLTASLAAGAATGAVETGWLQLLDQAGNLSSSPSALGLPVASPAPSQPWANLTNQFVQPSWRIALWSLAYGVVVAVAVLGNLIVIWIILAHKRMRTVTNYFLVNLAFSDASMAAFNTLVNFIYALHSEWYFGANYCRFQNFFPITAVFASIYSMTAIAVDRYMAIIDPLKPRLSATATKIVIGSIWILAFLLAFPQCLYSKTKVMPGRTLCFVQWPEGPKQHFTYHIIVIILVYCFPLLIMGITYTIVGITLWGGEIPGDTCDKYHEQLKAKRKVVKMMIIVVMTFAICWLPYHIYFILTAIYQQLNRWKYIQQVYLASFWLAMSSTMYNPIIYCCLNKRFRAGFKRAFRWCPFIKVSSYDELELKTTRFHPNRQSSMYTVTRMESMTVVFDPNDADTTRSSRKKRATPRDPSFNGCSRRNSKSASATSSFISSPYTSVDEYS
Procedure: as §1

[9] = target: Neuropeptide Y (Y4) (Homo sapiens, UniProt P50391); test: GPCR counterscreen binding assay
Procedure: as §1

[10] = target: Delta opiate (Homo sapiens, UniProt P41143); test: GPCR counterscreen binding assay
Sequence of Delta opiate (P41143 whole entry): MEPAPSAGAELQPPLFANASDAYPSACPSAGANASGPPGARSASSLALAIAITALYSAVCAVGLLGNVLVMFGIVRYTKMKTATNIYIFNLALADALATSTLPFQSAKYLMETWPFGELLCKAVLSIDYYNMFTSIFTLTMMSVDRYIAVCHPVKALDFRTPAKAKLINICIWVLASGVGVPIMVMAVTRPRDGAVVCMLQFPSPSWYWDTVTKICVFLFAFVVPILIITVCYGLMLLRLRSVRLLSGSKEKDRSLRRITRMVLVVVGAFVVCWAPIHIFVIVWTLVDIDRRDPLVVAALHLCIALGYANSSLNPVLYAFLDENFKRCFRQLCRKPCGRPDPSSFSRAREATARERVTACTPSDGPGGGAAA
Procedure: as §1

[11] = target: Adrenergic α2B (Homo sapiens, UniProt P18089); test: GPCR counterscreen binding assay
Procedure: as §1

[12] = target: Adenosine A2A (Homo sapiens, UniProt P29274); test: GPCR counterscreen binding assay
Sequence of Adenosine A2A (P29274 whole entry): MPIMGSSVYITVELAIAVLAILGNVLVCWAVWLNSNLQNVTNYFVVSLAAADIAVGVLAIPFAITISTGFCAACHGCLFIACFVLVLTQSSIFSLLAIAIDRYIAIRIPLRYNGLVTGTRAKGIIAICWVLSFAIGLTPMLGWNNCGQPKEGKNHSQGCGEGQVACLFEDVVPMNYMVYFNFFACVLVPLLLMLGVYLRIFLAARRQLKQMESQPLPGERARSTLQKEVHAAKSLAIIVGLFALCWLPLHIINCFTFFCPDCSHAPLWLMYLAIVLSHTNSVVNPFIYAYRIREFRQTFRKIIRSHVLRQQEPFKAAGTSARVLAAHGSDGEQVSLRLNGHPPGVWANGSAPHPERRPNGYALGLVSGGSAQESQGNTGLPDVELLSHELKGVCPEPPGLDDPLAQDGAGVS
Procedure: as §1

[13] = target: Muscarinic M4 (Homo sapiens, UniProt P08173); test: GPCR counterscreen binding assay
Sequence of Muscarinic M4 (P08173 whole entry): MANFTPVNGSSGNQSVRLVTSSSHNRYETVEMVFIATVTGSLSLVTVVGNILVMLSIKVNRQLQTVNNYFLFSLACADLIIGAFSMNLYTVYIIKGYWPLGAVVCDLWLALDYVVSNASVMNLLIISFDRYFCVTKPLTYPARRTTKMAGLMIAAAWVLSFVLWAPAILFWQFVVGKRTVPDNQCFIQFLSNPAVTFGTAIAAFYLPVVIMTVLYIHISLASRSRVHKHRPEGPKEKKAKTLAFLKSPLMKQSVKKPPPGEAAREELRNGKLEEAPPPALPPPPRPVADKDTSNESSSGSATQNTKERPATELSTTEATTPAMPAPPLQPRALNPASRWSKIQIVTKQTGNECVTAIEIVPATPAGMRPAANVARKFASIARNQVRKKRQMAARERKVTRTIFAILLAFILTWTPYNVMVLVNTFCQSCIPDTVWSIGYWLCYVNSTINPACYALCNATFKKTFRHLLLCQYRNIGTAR
Procedure: as §1

[14] = target: Purinergic P2Y1 (Homo sapiens, UniProt P47900); test: GPCR counterscreen binding assay
Procedure: as §1

[15] = target: Adrenergic α1A (Homo sapiens, UniProt P35348); test: GPCR counterscreen binding assay
Sequence of Adrenergic α1A (P35348 whole entry): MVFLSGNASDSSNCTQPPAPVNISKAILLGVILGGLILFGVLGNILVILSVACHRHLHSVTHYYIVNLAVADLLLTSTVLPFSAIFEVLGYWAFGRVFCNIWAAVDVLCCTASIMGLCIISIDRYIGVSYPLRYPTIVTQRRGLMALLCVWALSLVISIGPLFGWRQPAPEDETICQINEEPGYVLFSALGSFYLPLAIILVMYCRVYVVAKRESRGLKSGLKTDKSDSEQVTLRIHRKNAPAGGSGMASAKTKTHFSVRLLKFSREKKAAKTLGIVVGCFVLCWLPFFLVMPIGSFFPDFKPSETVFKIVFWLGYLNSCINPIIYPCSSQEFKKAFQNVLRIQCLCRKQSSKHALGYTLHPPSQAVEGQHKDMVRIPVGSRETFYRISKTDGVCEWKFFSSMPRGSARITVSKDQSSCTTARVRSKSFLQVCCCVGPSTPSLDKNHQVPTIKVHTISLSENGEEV
Procedure: as §1

[16] = target: Vasopressin (oxytocin) (Homo sapiens, UniProt P30559); test: GPCR counterscreen binding assay
Sequence of Vasopressin (oxytocin) (P30559 whole entry): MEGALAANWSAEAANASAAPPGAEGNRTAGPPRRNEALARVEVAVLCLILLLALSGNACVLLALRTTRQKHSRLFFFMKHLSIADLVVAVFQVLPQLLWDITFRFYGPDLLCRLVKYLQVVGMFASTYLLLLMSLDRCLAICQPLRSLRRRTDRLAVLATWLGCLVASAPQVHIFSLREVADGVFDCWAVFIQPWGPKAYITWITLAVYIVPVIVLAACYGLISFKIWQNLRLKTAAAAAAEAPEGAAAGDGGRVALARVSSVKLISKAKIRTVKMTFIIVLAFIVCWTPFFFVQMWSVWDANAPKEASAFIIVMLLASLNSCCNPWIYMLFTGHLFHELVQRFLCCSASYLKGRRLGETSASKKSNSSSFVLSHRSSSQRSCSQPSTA
Procedure: as §1

[17] = target: MCHR1 (Homo sapiens, UniProt Q99705); test: GPCR counterscreen binding assay
Procedure: as §1

[18] = target: CXCR1 (Homo sapiens, UniProt P25024); test: GPCR counterscreen binding assay
Sequence of CXCR1 (P25024 whole entry): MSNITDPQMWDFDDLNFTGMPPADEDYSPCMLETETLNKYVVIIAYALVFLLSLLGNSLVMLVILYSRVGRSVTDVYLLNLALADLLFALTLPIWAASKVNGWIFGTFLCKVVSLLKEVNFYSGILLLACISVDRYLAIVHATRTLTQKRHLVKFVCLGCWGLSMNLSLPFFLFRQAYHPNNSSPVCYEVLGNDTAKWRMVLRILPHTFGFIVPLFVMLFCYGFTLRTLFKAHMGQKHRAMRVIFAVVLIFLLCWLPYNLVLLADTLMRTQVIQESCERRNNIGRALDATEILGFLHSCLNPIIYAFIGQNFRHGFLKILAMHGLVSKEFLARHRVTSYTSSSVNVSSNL
Procedure: as §1

[19] = target: Nociceptin NOP1 (Homo sapiens, UniProt P41146); test: GPCR counterscreen binding assay
Procedure: as §1

[20] = target: Adenosine A1 (Homo sapiens, UniProt P30542); test: GPCR counterscreen binding assay
Procedure: as §1

[21] = target: Dopamine D4.2 (Homo sapiens, UniProt P21917, DEL265-296); test: GPCR counterscreen binding assay
Procedure: as §1

[22] = target: Neuropeptide Y (Y5) (Homo sapiens, UniProt Q15761); test: GPCR counterscreen binding assay
Sequence of Neuropeptide Y (Y5) (Q15761 whole entry): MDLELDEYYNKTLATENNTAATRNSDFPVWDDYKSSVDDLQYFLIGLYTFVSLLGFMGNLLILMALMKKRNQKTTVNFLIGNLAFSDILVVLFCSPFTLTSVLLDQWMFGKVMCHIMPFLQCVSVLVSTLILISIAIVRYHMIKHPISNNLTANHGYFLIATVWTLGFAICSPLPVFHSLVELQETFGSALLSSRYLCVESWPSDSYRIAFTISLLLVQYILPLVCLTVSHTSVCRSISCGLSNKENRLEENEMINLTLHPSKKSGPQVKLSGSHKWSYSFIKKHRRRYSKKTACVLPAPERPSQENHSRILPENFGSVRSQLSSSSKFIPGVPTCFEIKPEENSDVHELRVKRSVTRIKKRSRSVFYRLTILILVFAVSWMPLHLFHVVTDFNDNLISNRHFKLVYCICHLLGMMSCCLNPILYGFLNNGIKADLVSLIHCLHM
Procedure: as §1

[23] = target: Muscarinic M5 (Homo sapiens, UniProt P08912); test: GPCR counterscreen binding assay
Sequence of Muscarinic M5 (P08912 whole entry): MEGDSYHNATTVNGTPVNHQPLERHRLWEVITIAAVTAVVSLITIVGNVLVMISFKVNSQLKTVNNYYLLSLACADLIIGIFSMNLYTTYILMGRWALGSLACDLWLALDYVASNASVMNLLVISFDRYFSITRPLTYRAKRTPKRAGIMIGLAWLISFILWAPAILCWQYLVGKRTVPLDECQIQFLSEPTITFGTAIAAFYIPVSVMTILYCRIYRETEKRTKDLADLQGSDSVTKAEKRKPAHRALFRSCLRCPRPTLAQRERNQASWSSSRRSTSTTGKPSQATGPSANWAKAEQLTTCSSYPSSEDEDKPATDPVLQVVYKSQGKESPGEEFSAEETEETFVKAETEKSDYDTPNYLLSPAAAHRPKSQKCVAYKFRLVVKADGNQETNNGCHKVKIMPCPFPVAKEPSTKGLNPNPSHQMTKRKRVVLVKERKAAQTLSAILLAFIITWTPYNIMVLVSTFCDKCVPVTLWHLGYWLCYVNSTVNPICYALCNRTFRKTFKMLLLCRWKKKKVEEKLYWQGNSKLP
Procedure: as §1

SMILES: CC[C@H]1CN(c2nc(N)c(C(N)=O)nc2Cl)CCN1C1CCN(Cc2ccc(Cl)cc2)CC1 [SCH 546738]
- mean survival time of the graft (MST) ([1]; 1 mpk oral twice daily): 11 days
- rate of permanent engraftment ([1]; 5 mpk SCH 546738 twice daily in combination with 2.5 mpk cyclosporine): 100%
- mean survival time of the graft (MST) ([1]; 5 mpk oral twice daily): 14 days
- mean survival time of the graft (MST) ([1]; 15 mpk oral twice daily): 14.9 days
- AUC(0-t) [2]: 12.6 µM·h
- IC50 [3]: 4.2 nM
- IC50 [4]: 5.9 nM
- IC50 [5]: 6.4 nM
- inhibition at 10 µM [6]: 9%
- inhibition at 10 µM [7]: 9%
- inhibition at 2 µM [8]: 0%
- inhibition at 4 µM [9]: -2%
- inhibition at 4 µM [10]: 12%
- inhibition at 2 µM [11]: -2%
- inhibition at 4 µM [12]: 3%
- inhibition at 4 µM [13]: 30%
- inhibition at 4 µM [14]: 16%
- inhibition at 2 µM [15]: 11%
- inhibition at 4 µM [16]: 12%
- inhibition at 10 µM [17]: 0%
- inhibition at 10 µM [18]: 13%
- inhibition at 4 µM [19]: -21%
- inhibition at 4 µM [20]: 0%
- inhibition at 10 µM [21]: 18%
- inhibition at 4 µM [22]: 12%
- inhibition at 4 µM [23]: 28%

Source: paper PMC3298469, “A selective and potent CXCR3 antagonist SCH 546738 attenuates the development of autoimmune diseases and delays graft rejection” (BMC Immunology, 2012)
